Source: ChEMBL document CHEMBL1201862, “PubChem BioAssay data set” (2004)
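Tested at 5 concentrations; 48 h exposure; 96-well plates; endpoints linearly interpolated, else capped at highest concentration. GI50 is the concentration that inhibits growth by half.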 The source made the active and inactive calls. No stated cut-off is given here; in the data, active = GI50 up to about 1.1 µM and inactive = higher.

Key:
Assay in all cases: inhibition of tumour cell growth, NCI panel, 48 h
[1] = tested on: KM12
[2] = tested on: NCI-H522
[3] = tested on: MOLT-4
[4] = tested on: U-251
[5] = tested on: CAKI-1
[6] = tested on: SK-OV-3
[7] = tested on: T47D
[8] = tested on: EKVX
[9] = tested on: MDA-MB-231
[10] = tested on: NCI/ADR-RES
[11] = tested on: HT-29
[12] = tested on: SR
[13] = tested on: IGROV-1
[14] = tested on: CCRF-CEM
[15] = tested on: PC-3
[16] = tested on: NCI-H23
[17] = tested on: RXF 393
[18] = tested on: NCI-H460
[19] = tested on: NCI-H226
[20] = tested on: MDA-N
[21] = tested on: COLO 205
[22] = tested on: Malme-3M
[23] = tested on: RPMI-8226
[24] = tested on: SK-MEL-2
[25] = tested on: HL-60
[26] = tested on: SK-MEL-5
[27] = tested on: SNB-19
[28] = tested on: SN12C
[29] = tested on: OVCAR-5
[30] = tested on: 786-0
[31] = tested on: SF-295
[32] = tested on: SK-MEL-28
[33] = tested on: ACHN
[34] = tested on: HOP-62
[35] = tested on: HCT-15
[36] = tested on: HOP-92
[37] = tested on: SF-539
[38] = tested on: SW-620
[39] = tested on: MCF7
[40] = tested on: OVCAR-4
[41] = tested on: HCC 2998
[42] = tested on: UACC-257
[43] = tested on: OVCAR-8
[44] = tested on: UO-31
[45] = tested on: M14
[46] = tested on: Hs-578T
[47] = tested on: K562
[48] = tested on: SF-268
[49] = tested on: A549
[50] = tested on: DU-145
[51] = tested on: HCT-116
[52] = tested on: SNB-75
[53] = tested on: MDA-MB-435
[54] = tested on: BT-549
[55] = tested on: UACC-62
[56] = tested on: OVCAR-3
[57] = tested on: A498
[58] = tested on: TK-10
[59] = tested on: LOX IMVI

Measured: GI50

O=c1cc(-c2ccccc2)oc2c1ccc1nc3ccccc3c(O)c12
inactive: [1] 16.7 µM | [2] 39.9 µM | [3] 57.4 µM | [4] 57.3 µM | [5] 60.7 µM | [6] 43.7 µM | [7] 40.8 µM | [8] > 100 µM | [9] > 100 µM | [10] 42.4 µM | [11] > 100 µM | [12] 40.7 µM | [13] > 100 µM | [14] 54.6 µM | [15] > 100 µM | [16] 89.1 µM | [17] 31.6 µM | [18] 14.7 µM | [19] > 100 µM | [20] > 100 µM | [21] > 100 µM | [22] > 100 µM | [23] 51.1 µM | [24] > 100 µM | [25] 59.7 µM | [26] 47.6 µM | [27] > 100 µM | [28] 66.1 µM | [29] > 100 µM | [30] 42 µM | [31] 49.4 µM | [32] > 100 µM | [33] 43.5 µM | [34] 88.1 µM | [36] > 100 µM | [37] 33 µM | [38] > 100 µM | [39] 36.4 µM | [40] 34.8 µM | [41] 62.8 µM | [42] > 100 µM | [43] 80.5 µM | [44] 80.2 µM | [45] > 100 µM | [46] 59.4 µM | [47] > 100 µM | [48] 39.8 µM | [49] 45.1 µM | [50] 61.2 µM | [51] 26.4 µM | [52] 34.9 µM | [53] > 100 µM | [54] 33.5 µM | [55] 67.1 µM | [56] 79.1 µM | [57] 27.5 µM | [58] 60.1 µM | [59] 12.5 µM
42.3 µM: [35]

CC1=CC23C(COC(=O)C24CO4)C(C(=O)O)=CC3C1C (stereo not drawn)
24.5 µM: [35]
inactive: [1] 6.73 µM | [2] 1.37 µM | [3] 17.4 µM | [4] 11.5 µM | [5] 9.79 µM | [6] 4.65 µM | [7] 6.21 µM | [8] 40.4 µM | [9] 10.9 µM | [10] 15.3 µM | [11] 16.2 µM | [12] 17.1 µM | [13] 24.1 µM | [14] 5.86 µM | [15] 11.9 µM | [16] 27.1 µM | [17] 3.55 µM | [18] 18.2 µM | [19] 15.6 µM | [20] 24 µM | [21] 24.7 µM | [22] 6 µM | [23] 2.37 µM | [24] 3.08 µM | [25] 15 µM | [26] 25.2 µM | [27] 5.33 µM | [28] 3.32 µM | [29] 24.4 µM | [30] 5.09 µM | [31] 24.3 µM | [32] 2.3 µM | [33] 27.4 µM | [34] 14.1 µM | [36] 8.24 µM | [37] 15 µM | [38] 18.2 µM | [39] 35.6 µM | [40] 15.2 µM | [41] 15.4 µM | [42] 29 µM | [43] 15.9 µM | [44] 27.3 µM | [45] 7.55 µM | [46] 2.78 µM | [47] 4.85 µM | [48] 4.93 µM | [49] 26.1 µM | [50] 28.1 µM | [51] 16 µM | [52] 17.7 µM | [53] 23.1 µM | [54] 4.9 µM | [55] 12.8 µM | [56] 32.3 µM | [57] 23.3 µM | [58] 21.2 µM | [59] 17 µM
